Source: article PMC4197335, “Cancer-Selective Targeting of the NF-κB Survival Pathway with GADD45β/MKK7 Inhibitors” (Cancer Cell, 2014)

Legend:
tolerability in mice = test: tolerability in mice
Description: Table S6, related to Figure 7. Summary of the pharmacokinetic profiles of DTP3 and z-DTP2
PK Param enters Values Drug
Values denote means ± SD (n=3) or SEM (n=5), as indicated. MW , molecular

GST-hMKK7 = biological target: T1, GST-hMKK7 (Homo sapiens, UniProt O14733); test: tryptophan fluorescence quenching analysis; format: binding; conditions: DTP3/MKK7 interaction
T1 construct: Full-length human (h)MKK7 was expressed as a protein fused to an N-terminal GST tag (GST-MKK7); made in house
T1 sequence (O14733 1-419): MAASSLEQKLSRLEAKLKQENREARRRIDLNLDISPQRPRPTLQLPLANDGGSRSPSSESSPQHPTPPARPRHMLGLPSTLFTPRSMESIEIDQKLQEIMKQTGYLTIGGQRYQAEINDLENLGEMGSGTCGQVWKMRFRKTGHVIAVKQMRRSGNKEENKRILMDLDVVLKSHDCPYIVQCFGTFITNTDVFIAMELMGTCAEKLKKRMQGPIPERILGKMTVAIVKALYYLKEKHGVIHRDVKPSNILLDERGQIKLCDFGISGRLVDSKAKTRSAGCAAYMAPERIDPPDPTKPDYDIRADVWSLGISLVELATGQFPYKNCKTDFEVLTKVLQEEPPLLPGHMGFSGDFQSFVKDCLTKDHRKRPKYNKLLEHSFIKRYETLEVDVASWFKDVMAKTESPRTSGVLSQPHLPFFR
Method: The stoichiometry and KD value of the DTP3/MKK7 interaction were determined by tryptophan fluorescence quenching analysis, after fitting the fluorescence data with a nonlinear regression algorithm, as described by [Williamson (2013)]. Additional details are provided in Supplemental Experimental Procedures, along with a description of the methods used for CD and MALDI-TOF mass spectrometry analyses and the pull-down of MKK7 from cells with DTP3.
Spectrofluorimetric Analyses
The stoichiometry of the interaction of DTP3 with MKK7 was determined by using tryptophan f luorescence quenching analysis. Spectra were acquired with a Cary Eclipse Spectrof luorimeter analyzer (Varian Inc.), equipped with Peltier thermostating system, and a 1- cm quartz cuvette. The analyses were carried out using 1. 25 μM of GST -hMKK7 or GST dissolved in 10 mM of phosphate buff er, pH 7.5, and increasing concentrations of DTP3 or control SCRB D-peptide dissolved in the same buffer. […] The fluorescence values recorded at 333 nm were extracted, transformed to -ΔFluorescence and, then, plotted against the peptide concentration.
Fluorescence data were f itted using a single- site binding model (equation 1): […]
binding, was a highly appropriate model to account for the measured f lorescence trends, resulting in a R square (R2) of 0.985 and a chi square (X2) of 1.436. […]

## CC(=O)N[C@H](Cc1ccc(O)cc1)C(=O)N[C@H](CCCNC(=N)N)C(=O)N[C@H](Cc1ccccc1)C(N)=O [DTP3, Ac-YRF-NH2]
Tolerability in mice; mice, osmotic pumps
  Toxicity - continual s.c. dosing (14.5 mg/kg/day for 28 days): no apparent toxicity
Tolerability in mice; mouse, in vivo, iv, 10 mg/kg
  Toxicity - single i.v. (10 mg/kg): no apparent toxicity
Tolerability in mice; mouse, in vivo, po, 100 mg/kg
  Toxicity - oral (100 mg/kg): no apparent toxicity
Tolerability in mice; mouse, in vivo, sc, 10 mg/kg
  Toxicity - single s.c. (10 mg/kg): no apparent toxicity
GST-hMKK7
  Kd: 64.8 ± 6.22 nM
